Laboratory results: patent US20240293441A1, “NEW THERAPEUTIC USE OF TYPE 2 IODOTHYRONINE DEIODINASE (D2) INHIBITORS” (MATERIAS S.R.I, priority 2021, published 2024)

Key:
[1] = test system: C26-injected mice; test: C26 tumor-induced cancer cachexia mouse model with oral amiodarone; format: in vivo
Procedure: Murine colon 26 adenocarcinoma cells (C26) were cultured in DMEM containing 10% fetal bovine serum, 100 U/ml penicillin, and 100 μg/ml streptomycin. For in vivo inoculation, a single suspension of 7×10^6 cells in 100 μl of physiological saline was injected subcutaneously into the right flank of the BALB/c mice. The same volume of physiological saline was injected into the control groups.
In cachexia+/−Amiodarone experiments, mice were treated for 18 days with Amiodarone and were sacrificed 7 days post induced-cachexia. Amiodarone was given from […] (day 1 is the day of cells injection).
(§1) Mice (C57BL6 mice) were treated with 0.45 mg/ml Amiodarone (Sigma, A8423, St. Louis, MO, USA) (Bagchiet al., Circulation Research 1987; 60:621-625; Lee et al., Oncotarget, 2015; 6(40): 42976-42987) in drinking water ad libitum starting 1 week before the induced-denervation or cachexia, until sacrifice.
(§2) Preparation of amiodarone: 45 mg dissolved in 1 ml of water for 10 minutes at 80° C.
In tumor-induced cachexia mice models, mice were treated with oral amiodarone for 18 days (−7/+11 relative to C26 injection) (FIG. 10A). Matched group of amiodarone-treated and control mice were injected with C26 cells, and muscle wasting was monitored to different days following injection.

[2] = test system: denervated mice; test: Denervation (sciatic nerve transection) muscle wasting mouse model with oral amiodarone; format: in vivo
Procedure: Animals were anesthetized by a ketaminexylazine cocktail and a small incision ([…]) was made in the left tight skin. The sciatic nerve was exposed with the help of a small surgical hook and then cut before the separation of sciatic nerve branches. A small (2-5 mm) nerve section was removed to prevent re-innervation. Denervation was performed unilaterally, using the contralateral hindlimb as a negative control. Tissues were collected 2, 6, 12 or 15 days after denervation surgery.
In denervation+/−Amiodarone experiments, mice were treated for 13 days with Amiodarone and were sacrificed 5 days post induced-denervation (from day −7 up day+5 upon denervation).
as §1, §2
In denervation mice models, mice were treated with oral amiodarone for 13 days (from day −7 up day+5 upon denervation).

[3] = test system: DysE17 flies; test: Climbing assay (negative geotaxis) in dystrophic Drosophila fed amiodarone; format: in vivo, Drosophila melanogaster
Description: The genetic loss-of-function homozygous Drosophila mutant for dystrophin (dys), DysE17 (hiips://flybase.org/reports/FBal0241311.html) was employed as a Duchenne muscular dystrophy model, which carries a point mutation on chromosome 3 (location: 92A10, 3R:19,590,458 . . . 19,590,458) causing a nucleotide change C19590458T and consequently the amino acid change Q2807term|Dys-PA. This is a termination codon determining full-length dys protein to be abnormally shortened. As control, the wild-type Oregon-R strain was used.
The adult wild-type animals and mutant fruit flies were treated with amiodarone at increasing concentrations, supplemented in the food for 30 days.
Eclosed Oregon-R and homozygous DysE17 Drosophila (1-2 days of adult age) were placed in vials (10-15 animals/vials) and reared on 4-5 ml of either the standard medium or medium supplemented with amiodarone at increasing doses (100 nM, 1 μM, 10 μM, 20 μM, and 50 μM). Food was replaced each 5 days. Amiodarone-supplemented diets were freshly prepared by mixing amiodarone with appropriate amounts of standard food just before the administration to animals. At least 3 vials per group were prepared within each experiment. Each experiment was repeated 3 or more times: in total, a minimum of 60 animals per experimental condition was analysed.
• Oregon-R receiving vehicle (DMSO 1:1000); • DysE17 flies receiving vehicle (DMSO 1:1000); • DysE17 flies receiving 100 nM amiodarone; • DysE17 flies receiving 1 μM amiodarone; • DysE17 flies receiving 10 μM amiodarone; • DysE17 flies receiving 20 μM amiodarone; • DysE17 flies receiving 50 μM amiodarone.
Flies were treated for 30 days (treatments ended when animals reached 30 days of adult age), with food renewal each 5 days.
Geotaxis was assessed using a climbing assay (negative geotaxis reflex in opposition to the Earth's gravity). A horizontal line was drawn 15 cm above the bottom of the vial. After a 10 minutes rest period, the flies were tapped to the bottom of the vials: all flies were forced to start climbing (vertical walking). The number of flies that climbed up to the 15 cm mark after 60 seconds was recorded as the percentage success rate. A camera recorded fly movement during the experiment. Each trial was performed three times, at one-minute intervals, and the results averaged. Climbing performance was assessed each 5 days starting from day 1-2 of adult age (just after eclosion) and ending at 30 days.
For the validation study, the climbing efficiency and muscle structure of adult wild-type animals and DysE17 mutants were analyzed after food supplementation with amiodarone at increasing concentrations for 0-30 days (geotaxis assay).

[4] = test system: mice with CTX-injured tibialis anterior (TA) muscle; test: Muscle regeneration after cardiotoxin (CTX) injury in rT3-treated mice; format: in vivo, mouse
Procedure: Animals were anesthetized by a ketaminexylazine cocktail, and 12,5 μl of 60 μg/ml CTX (Naja mossambica mossambica, Sigma-Aldrich) was injected into and along the length of the right tibialis anterior (TA) (Yan, 2003 J Biol Chem 278(10): 8826-8836) and 25 μl into gastrocnemius muscle. CTX was injected on different day from Tam.
The tibialis anterior (TA) muscles were dissected and fixed in isopentane in liquid nitrogen, and sliced into 7 μm sections. The cross-sectional area was analyzed and quantified using CellF*Olympus Imaging Software.
Dissected muscles were snap frozen in liquid nitrogen-cooled isopentane, sectioned (7 μm thick) and stained. For immunofluorescent staining, cells or section were fixed with 4% formaldehyde (PFA) and permeabilized in 0.1% Triton X-100, then blocked with 0.5% goat serum and incubated with primary antibody. Alexa Fluor™ 594/647-conjugated secondary antibody was used. Images were acquired with an IX51 Olympus microscope and the Cell*F software. For hematoxylin/eosin staining (H&E), sections were fixed for 15 min and placed in hematoxylin for 5 min followed washed, and 5 min in Eosin.
(§3) In vivo: mice (C56BL6 mice) were treated systemically with an i.v. injection of 100 μl of 30 ng/μl rT3 (Sigma Aldrich) or PBS vehicle control to consecutive 4 days.
To therapeutically exploit the capacity of D2-depletion to activate stem cells and accelerate muscle tissue repair, mice were treated with oral reverse triiodothyronine (rT3, a specific D2-inhibitor) for 7 days (−5/+2 relative to CTX injury) (FIG. 7A).

[5] = test system: mice with full-thickness skin wounds; test: Skin wound healing in rT3-treated mice; format: in vivo, mouse
Procedure: The back fur of mice was shaved and the skin was cleaned with 70% alcohol. The dorsal skin was pulled using forceps and two 8-mm full-thickness skin wounds were created along the midline using a sterile 8 mm circular biopsy punch by pressing through both layers of the skin pull. Skin wound healing was measured every 2-3 days by anesthetizing the animals and imaging the wounded area.
Excisional, full-thickness skin wounds were aseptically made on the dorsal skin by picking up a fold skin at the midline and using a sterile, disposable biopsy punch with a diameter of 8 mm to punch through the two layers of skin. In this manner, two wounds were made on each side of the midline at the same time. Each wound site was digitally photographed using the Nikon FX-35A at the indicated time intervals, and wound areas were determined on photographs using CellF*. Changes in wound areas were expressed as the percentage of the initial wound areas.
as §3
In a similar setting, the present inventors also tested whether D2 inhibition positively affected wound regeneration in skin.

[6] = test system: pp6 cells; test: TNFα-induced cell death (PARP immunoblot) in muscle cells with or without rT3; format: cell-based, mouse; settings: TNFα 24 h; rT3 30 nM
Procedure: Primary muscle cultures (pp6) were isolated as described (Qu et al., 1998 J Cell Biol 142(5): 1257-1267) from the indicated mouse lines. Immortalized myoblasts (C2C12) were obtained from ATCC. Proliferating cells were cultured in 20% Fetal Bovine Serum Dulbecco's modified Eagle's medium at 37° C. with penicillin/streptomycin. Transient transfections were performed using Lipofectamine 2000 (Life Technologies) according to the manufacturer's instructions. Anti-MyoD (sc-304) and tubulin (sc-8035) antibodies were purchased from Santa Cruz Biotechnology. Anti-Pax7 antibody were from Developmental Studies Hybridoma Bank. Anti-PARP was from Cell Signaling Technology.
Total protein extracts from cells and tissues were run on a 10% sodium dodecyl sulfate-polyacrylamide gel electrophoresis gel and transferred to an Immobilon-P transfer membrane (Millipore, Billerica, MA). The membrane was then blocked with 5% nonfat dry milk in phosphate buffered saline, probed with the primary antibody, washed and incubated with horseradish peroxidase-conjugated donkey anti-rabbit or mouse immunoglobulin G secondary antibody (1:3000), and detected by chemiluminescence (Millipore). After extensive washing, the membrane was incubated with antitubulin-specific or ERK antibody (1:10,000; sc-8035, Santa Cruz, Dallas, TX) as loading control.
In vitro: Pp6 or C2C12 cells were treated with rT3 (30 nM) […]

[7] = TA muscle, 11 days after C26 cells injection, vs control
[8] = gastrocnemius, oral amiodarone 13 days (day −7 to +5 upon denervation), vs control
[9] = 7 days post-CTX, oral rT3 for 7 days (−5/+2 relative to CTX injury), vs control

With `CCCCc1oc2ccccc2c1C(=O)c1cc(I)c(OCCN(CC)CC)c(I)c1` [Amiodarone (AMIO), Amiodarone] the “Atrogin-1 mRNA expression” value [1, 7] was “potently down-regulated”, the “MuRF-1 mRNA expression” value [1, 7] was “potently down-regulated” and the survival ([1]; after C26 cells injection, control mice about 12.7 days) was > 27 days. For the same compound, the tumor weight ([1]; amiodarone-treated vs control mice, 11 days after C26 cells injection) was “no significant effects”, the “muscle wasting (body, heart, TA and GC weight)” value ([1]; oral amiodarone for 18 days (−7/+11 relative to C26 injection), vs control) was “preserved from massive muscle wasting” and the “muscle wasting (gastrocnemius muscle mass)” value ([2]; after denervation, oral amiodarone 13 days) was “preserved from massive muscle wasting”. The “Atrogin-1 mRNA expression” value [2, 8] was “potently down-regulated”, the “MuRF-1 mRNA expression” value [2, 8] was “potently down-regulated” and the “functional deficits vs untreated Dys animals” value ([3]; after 25-30 days of treatment) was “the same functional deficits”. The “damaged animals (climbing decay)” value ([3]; amiodarone 10 μM for 15 days, untreated Dys 35%) was 18%, the “damaged animals (climbing decay)” value ([3]; amiodarone 10 μM for 20 days, untreated Dys 55%) was 32% and the “most effective concentration on fly mobility” value ([3]; doses 100 nM to 50 μM in food, 30 days) was 10 µM. The “muscle structure of functionally recovered muscles” value ([3]; dystrophic mutant flies, chronic amiodarone) was “still compromised at structural level”, the “effect on climbing decay of dystrophic animals” value ([3]; higher concentrations, 20-50 μM) was “did not alter the climbing decay” and the “effect on fly mobility” value ([3]; increasing doses from 100 nM to 10 μM) was “dose-dependent beneficial effect”. The “effect on mobility at shorter times” value ([3]; treatment shorter than 15 days (10 days)) was “no effects”.

`N[C@@H](Cc1ccc(Oc2cc(I)c(O)c(I)c2)c(I)c1)C(=O)O` [Reverse triiodothyronine (rT3), 3,3′5′-triiodothyronine] was tested, and the “fiber size (cross-sectional area)” value [4, 9] was “smaller than control”, the “number of fibers (H&E)” value [4, 9] was “increased number of fibers” and the “fiber size (cross-sectional area)” value ([4]; 21 days after injury, rT3 for 7 days, vs control) was “larger fibers”. For the same compound, the “Pax7+/EdU+ cells” value ([4]; TA sections, rT3 treated mice vs control) was “increased than control”, the “regrowth of hair in the shaved area” value ([5]; later time points following skin wounding (28 days post-injury)) was “more complete regrowth of hair” and the wound repair ([5]; rT3-treated mice vs control) was “more rapidly and efficiently than control”. The TNFα-induced apoptosis [6] was “protected from apoptosis”.
